Data taken from patent US20030166138A1, “Cyclic peptides and analogs useful to treat allergies” (priority 2002, published 2003).
Entries after “also recorded” stand apart in the source; their conditions may differ.

What was measured:
germline ε promoter = assay: GFP reporter assay of IL-4 induced ε promoter-driven transcription in naive A5T4 cells (phenotype transfer); type: cell-based; conditions: for activity in blocking epsilon promoter transcription (GFP reporter) when presented in the mutant intein context: mutant intein construct; for activity in blocking epsilon promoter transcription (GFP reporter) when presented in the mutant intein context / Mutant Reporter Ratio (± std) / Wild-Type Reporter Ratio (± std): naive A5T4 cells; for Mutant Reporter Ratio (± std): mutant intein construct (non-cyclic, splicing-deficient), IL-4 stimulated, GFP fluorescence; for Wild-Type Reporter Ratio (± std): wild-type intein construct (cyclic peptide), IL-4 30 U/ml, GFP fluorescence BFP−/BFP+, average of 3 values
Source text: To establish the A5T4 reporter cell line, BJAB cells were infected with a retroviral vector containing an IL-4 responsive 600 bp fragment of the epsilon promoter (Pε) followed by a fusion nucleic acid encoding HBEGF-2a-GFP and a polyadenylation sequence cloned in the reverse orientation into pCGSin (Lorens et al., 2000, Mol. Ther. 1:438-447). Infected cells were induced with IL-4 and single cell sorted by FACS for GFP reporter expression. One of the cell clones identified with the desired profile was designated A5. This cell line was infected with the CtTAIH retroviral vector expressing tTA-VP16 ires hygromycin phosphotranferase gene (Lorens et al., 2000, Virology 272:7) selected with hygromycin and single cell cloned. The clone selected for the screening cell line was characterized for tetracycline regulation and was designated A5T4.
Referring to FIG. 9 or 10, after single cell clones had expanded, cells were replica-plated and grown in the presence or absence of 100 ng/ml Dox for 4 days. Both plates were then stimulated with IL-4 (30 U/ml) and, after 3 more days, both populations were analyzed by FACS to measure GFP fluorescence. FACS data were converted to reporter ratios, which are defined as the ratio of the geometric mean of GFP fluorescence of the +IL-4/+Dox (peptide off) population over the geometric mean of the +IL-4/−Dox (peptide on) population. Cells expressing a cyclic peptide that inhibits germline ε transcription have reporter ratios of >1.1, typically >1.12, >1.13, >1.14 or >1.15.
Phoenix packaging cells were transfected with the retroviral vector illustrated in FIG. 6A encoding a particular cyclic peptide as described in WO 97/27213. Naïve A5T4 cells were infected with the resultant retrovirons and grown for three days. The infected cells (BFP^+) were stimulated with IL-4 (30 U/ml) and, after three days, were assessed by FACS for BFP and GFP fluorescence.
The GFP fluorescence data corresponding to the BFP^−/BFP^+in the presence of IL-4 stimulation were obtained for 34 clones and reporter ratios were calculated therefrom. […] Three others had reporter wt ratios in the range of about 1.12-1.2. The names of the clones, sequences of the regions of the polynucleotides encoding the cyclic peptides SEQ ID NOS:1-23, the sequences of the expressed cyclic peptides SEQ ID NOS:1-23 and their respective reporter ratios are provided in TABLE 1, below (“wild-type” reporter ratios; each reporter ratio is the average of 3 values):
As discussed previously, intein splicing is dependent upon the presence of nucleophilic residues at the splice junctions (underlined in FIG. 6A; see Perler & Adam, 2000, Curr. Opin. Biotechnol. 11:377-383). To confirm that the inhibitory activity of the clones of TABLE 1 was due to the expression of a cyclic peptide, mutants were created that lacked the ability to catalyze the splicing reaction due to the replacement of these three critical underlined nucleophilic residues with alanines. These mutants (illustrated in FIG. 6B) were then used to infect naive A5T4 cells as described above.

[1] = tested on: endogenous germline ε promoter; assay: Quantitative real time PCR (Taqman) of endogenous germline ε transcript in A5T4 cells; type: cell-based; conditions: mutant intein context, +IL-4
Protocol: The ability of cyclic peptides SEQ ID NOS:1-20 to inhibit transcription of an endogenous germline ε promoter was confirmed using quantitative real time PCR (Taqman®; Applied Biosystems, Foster City, Calif.). Briefly, A5T4 cells were infected with retrovirus capable of expressing the cyclic peptides (prepared as described above). Cells were first sorted for BFP to ensure that they were retrovirally infected. Several different assay conditions were tested: −Dox/-IL-4, −Dox/+IL-4, +Dox/-IL-4, +Dox/+IL-4. All experiments were conducted in triplicate. BFP positive sorted cells were thereafter maintained in Dox (peptide off). To obtain the −Dox condition, cells were washed 2× with media and maintained in Dox-free culture for 72 hours. Cells in +/−Dox were split to 50,000 cells per ml. The following day, IL-4 was added (30 units/ml) and cells were incubated for 3 days before FACS analysis and pelleting for RNA extraction. The primers and probe used were as follows (the probe was labeled at the 5′-end with Fam and at the 3′-end with Tamra):
The probe spans a splice junction and thus will not detect contaminating DNA in the reaction assay. […] The epsilon inhibition ratio R was calculated by dividing the transcript expression values in the presence of Dox and IL-4 (+IL-4/+Dox) by values in the absence of Dox and presence of IL-4(+IL-4/−Dox). […]

Row | Substance | activity in blocking epsilon promoter transcription (GFP reporter) when presented in the mutant intein context (germline ε promoter) | Mutant Reporter Ratio (± std) (germline ε promoter) | Wild-Type Reporter Ratio (± std) (germline ε promoter) | inhibition of ε-promoter induction (germline ε promoter; net increase of geometric mean GFP fluorescence following IL-4 stimulation, BFP+ vs uninfected population, wild-type intein) [%] | block of endogenous ε-transcription [1]
1 | cyclo(S V V T R) | remained active | 1.26 ± 0.03 | 1.19 ± 0.03 |  | 
2 | cyclo(S W A Q A) | inactive | 1.10 ± 0.04 | 1.25 ± 0.02 |  | 
3 | cyclo(S T G P R) | remained active | 1.18 ± 0.04 | 1.19 ± 0.03 |  | 
4 | cyclo(S R R H C C H) |  | 1.02 ± 0.03 | 1.09 ± 0.03 |  | 
5 | cyclo(S S F T) |  | 1.05 ± 0.04 | 1.10 ± 0.03 |  | 
6 | cyclo(S Y F T S C W) | decrease in activity | 1.27 ± 0.01 | 1.36 ± 0.07 |  | 
7 | cyclo(S L N R I) | remained active | 1.40 ± 0.08 | 1.45 ± 0.07 |  | 
8 | cyclo(S G A D S) | inactive | 1.08 ± 0.05 | 1.23 ± 0.02 |  | 
9 | cyclo(S S C M R) |  | 1.20 ± 0.12 | 1.12 ± 0.03 |  | 
10 | cyclo(S R R D R I) | inactive | 1.08 ± 0.04 | 1.31 ± 0.03 |  | 
11 | cyclo(S A R F V) | decrease in activity | 1.43 ± 0.03 | 1.52 ± 0.04 |  | 
12 | cyclo(S R V E I) | No significant difference; also recorded: inactive | 1.06 ± 0.06 | 1.53 ± 0.16 | 51 | 
13 | cyclo(S D H S Q) | inactive | 1.06 ± 0.06 | 1.20 ± 0.04 |  | 
14 | cyclo(S F G R S) | inactive | 1.08 ± 0.06 | 1.20 ± 0.02 |  | 
15 | cyclo(S R N W S H) | inactive | 1.06 ± 0.04 | 1.18 ± 0.04 |  | 
16 | cyclo(S E M F S I Q) | inactive | 1.13 ± 0.03 | 1.28 ± 0.03 |  | 
17 | cyclo(S N F T F) | inactive; also recorded: did not strongly block | 1.08 ± 0.05 | 1.28 ± 0.05 |  | clearly blocked
18 | cyclo(S N I P Q) | inactive | 1.10 ± 0.02 | 1.20 ± 0.01 |  | 
19 | cyclo(S Y S Q) | inactive | 1.07 ± 0.01 | 1.18 ± 0.01 |  | 
20 | cyclo(S V I E Q) | decrease in activity | 1.14 ± 0.04 | 1.22 ± 0.04 |  | 
21 | cyclo(S F V T W) | decrease in activity | 1.25 ± 0.06 | 1.46 ± 0.12 |  | 
22 | cyclo(S S L R W) | decrease in activity | 1.21 ± 0.02 | 1.31 ± 0.05 |  | 
23 | cyclo(S P W K L V G) | inactive | 1.02 ± 0.06 | 1.27 ± 0.03 |  | 
